# Results reported in PMC4901392 (Cell host & microbe, 2016).
# How the values were obtained:
# [1] = system: ZigA; details: read-out: apparent Km; Zn-bound ZigA (2 µM), 2 mM MgCl2, 150 mM NaCl, 20 mM Tris-HCl pH 8.0
# [2] = target: ZigA (Zur-induced GTPase A) (A. baumannii); assay: SEC
stoichiometry N [2],Compound,Km [1]
,Nc1nc2c(ncn2[C@@H]2O[C@H](COP(=O)(O)OP(=O)(O)OP(=O)(O)O)[C@@H](O)[C@H]2O)c(=O)[nH]1 [GTP],150 µM
2,ZigA (Zur-induced GTPase A) (enzyme),
